Assay [1] concerns EGFR Del19/T790M/C797S (H1975-clone #28). Briefly: EGFR degradation HTRF assay, H1975-clone #28 DTC cells. In kind it is cell-based. In short, it runs like this: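 Cells were dosed on day 2 with an 8-point, 5-fold dilution series starting at 10 uM final and incubated 16h at 37° C. After lysis for 1 hour, HTRF antibodies were added overnight at room temperature and the plate was read at 665/620 nm. Degradation was normalised to DMSO wells and fitted for DC50 and Dmax.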
Background: TR-FRET usually uses a lanthanide donor and a delayed reading to cut background.

Assay [2] has as its target T1, EGFR L858R/T790M/C797S (BaF3-LTC cells) (Homo sapiens, UniProt P00533, C797S/L858R/T790M).
T1 construct: expressed in transfected cells; host or cells: BaF3
In words: EGFR degradation HTRF assay, BaF3-LTC cells. In kind it is cell-based. In short, it runs like this:
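Cells treated 16 h at 37 °C, 5% CO2 in medium with 0.2% DMSO; top final concentration 10 uM, 5-fold dilution, 8 doses. Lysates read by HTRF (665/620 nm); degradation % versus DMSO high control, DC50 from four-parameter fit, Dmax as maximal degradation.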

Setting [3] is: H1975 # 28 DTC cells; EGFR degradation, IC50 (DC50) from curve fit; read-out: DC50(nM) H1975 # 28 DTC.
The mark [4] stands for this setting: H1975 # 28 DTC cells; maximum percentage of inhibition (degradation).
The mark [5] stands for this setting: BaF3-LTC cells; EGFR degradation, IC50 (DC50) from curve fit; read-out: DC50(nM) BaF3-LTC.
The mark [6] stands for this setting: BaF3-LTC cells; maximum percentage of inhibition (degradation); read-out: Dmax (%) BaF3-LTC.
Where [7] appears, read: read-out: DC50(nM) H1975 # 28 DTC; H1975 # 28 DTC cells; EGFR degradation, IC50 (DC50) from curve fit.
Where [8] appears, read: read-out: DC50(nM) BaF3-LTC; BaF3-LTC cells; EGFR degradation, IC50 (DC50) from curve fit.
The mark [9] stands for this setting: read-out: Dmax (%) BaF3-LTC, BaF3-LTC cells; maximum percentage of inhibition (degradation).

Like-named read-outs stand apart in the source and are kept apart here.

T1 sequence (P00533 25-1210 T790M/C797S/L858R): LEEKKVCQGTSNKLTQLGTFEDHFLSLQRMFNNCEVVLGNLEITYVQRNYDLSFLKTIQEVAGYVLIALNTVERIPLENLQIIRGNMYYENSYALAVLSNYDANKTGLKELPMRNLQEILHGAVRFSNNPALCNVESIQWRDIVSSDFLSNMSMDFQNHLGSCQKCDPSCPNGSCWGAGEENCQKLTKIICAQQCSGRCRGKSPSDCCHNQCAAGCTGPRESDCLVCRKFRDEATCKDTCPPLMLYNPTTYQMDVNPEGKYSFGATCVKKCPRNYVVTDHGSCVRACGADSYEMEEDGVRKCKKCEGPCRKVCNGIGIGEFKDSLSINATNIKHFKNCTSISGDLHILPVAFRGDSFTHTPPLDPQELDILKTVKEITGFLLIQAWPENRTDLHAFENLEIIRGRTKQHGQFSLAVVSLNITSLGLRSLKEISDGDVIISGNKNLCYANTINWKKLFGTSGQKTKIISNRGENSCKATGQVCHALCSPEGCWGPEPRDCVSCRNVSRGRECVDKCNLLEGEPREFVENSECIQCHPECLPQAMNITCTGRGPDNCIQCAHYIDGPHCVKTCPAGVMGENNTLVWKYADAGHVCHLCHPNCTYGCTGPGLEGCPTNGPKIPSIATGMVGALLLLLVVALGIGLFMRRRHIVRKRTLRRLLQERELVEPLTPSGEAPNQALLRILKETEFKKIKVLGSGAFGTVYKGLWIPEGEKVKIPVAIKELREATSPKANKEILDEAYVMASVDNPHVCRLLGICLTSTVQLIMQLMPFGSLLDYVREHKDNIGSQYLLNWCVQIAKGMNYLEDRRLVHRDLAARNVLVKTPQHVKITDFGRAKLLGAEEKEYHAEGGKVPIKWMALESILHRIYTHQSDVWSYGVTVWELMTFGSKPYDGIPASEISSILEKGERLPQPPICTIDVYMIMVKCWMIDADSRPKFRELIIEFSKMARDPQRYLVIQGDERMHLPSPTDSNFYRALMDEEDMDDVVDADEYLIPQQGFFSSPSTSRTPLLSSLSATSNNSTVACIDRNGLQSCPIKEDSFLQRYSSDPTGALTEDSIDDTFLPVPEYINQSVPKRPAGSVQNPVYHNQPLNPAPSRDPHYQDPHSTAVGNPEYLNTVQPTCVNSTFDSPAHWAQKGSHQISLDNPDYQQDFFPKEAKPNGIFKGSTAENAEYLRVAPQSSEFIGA

Turning to `CCOc1cc(N2CCC(N3CCN(CCc4ccc5c(oc(=O)n5C5CCC(=O)NC5=O)c4F)CC3)CC2)c(CC)cc1Nc1ncc(Br)c(Nc2ccc3nc(CC)ccc3c2P(C)(C)=O)n1` (stereo not drawn) [Example 555, 3-(6-(2-(4-(1-(4-((5-bromo-4-((5-(dimethylphosphoryl)-2-ethylquinolin-6-yl)amino)pyrimidin-2-yl)amino)-5-ethoxy-2-ethylphenyl)piperidin-4-yl)piperazin-1-yl)ethyl)-7-fluoro-2-oxobenzo[d]oxazol-3(2H)-yl)piperidine-2,6-dione], the DC50 in assay [1] (setting [3]) amounted to 1.89 nM; in assay [2] (setting [5]), 7.36 nM. In addition, the “Dmax (%) H1975 # 28 DTC” value in assay [1] (setting [4]) amounted to 77.45%. For the same molecule, the greatest degradation seen (Dmax) in assay [2] (setting [6]) turned out to be 94.5%.
Regarding `CCc1cnc2c(P(C)(C)=O)c(Nc3nc(Nc4cc(CC)c(N5CCC(N6CCN(CCc7ccc8c(c7)oc(=O)n8C7CCC(=O)NC7=O)CC6)CC5)cc4OC)ncc3Br)ccc2n1` (stereo not drawn) [Example 548, 3-(6-(2-(4-(1-(4-((5-bromo-4-((5-(dimethylphosphoryl)-2-ethylquinoxalin-6-yl)amino)pyrimidin-2-yl)amino)-2-ethyl-5-methoxyphenyl)piperidin-4-yl)piperazin-1-yl)ethyl)-2-oxobenzo[d]oxazol-3(2H)-yl)piperidine-2,6-dione], the “Dmax (%) H1975 # 28 DTC” value in assay [1] (setting [4]) turned out to be 74.38%. The half-maximal degradation concentration (DC50) in assay [1] (setting [7]) stood at 0.696 nM; in assay [2] (setting [8]) it was 3.63 nM. Also, in assay [2] (setting [9]), the greatest degradation seen (Dmax) was 91.8%.
Regarding `CCOc1cc(N2CCC(N3CCN(CC4CCN(c5cccc6c5oc(=O)n6C5CCC(=O)NC5=O)CC4)CC3)CC2)c(CC)cc1Nc1ncc(Br)c(Nc2ccc3nc(CC)ccc3c2P(C)(C)=O)n1` (stereo not drawn) [Example 581, 3-(7-(4-((4-(1-(4-((5-bromo-4-((5-(dimethylphosphoryl)-2-ethylquinolin-6-yl)amino)pyrimidin-2-yl)amino)-5-ethoxy-2-ethylphenyl)piperidin-4-yl)piperazin-1-yl)methyl)piperidin-1-yl)-2-oxobenzo[d]oxazol-3(2H)-yl)piperidine-2,6-dione], the DC50 in assay [1] (setting [3]) turned out to be 1.36 nM; in assay [2] (setting [5]), 6.9 nM. Further, in assay [1] (setting [4]), the “Dmax (%) H1975 # 28 DTC” value came to 72.5%. In assay [2] (setting [6]), the Dmax was determined as 88.5%.
`CCc1ncc2c(P(C)(C)=O)c(Nc3nc(Nc4cc(C)c(N5CCC(N6CCN(CCc7cc(F)c([C@H]8CCC(=O)NC8=O)c(F)c7)CC6)CC5)cc4OC)ncc3Br)ccc2n1` [Example 748, (R)-3-(4-(2-(4-(1-(4-((5-bromo-4-((5-(dimethylphosphoryl)-2-ethylquinazolin-6-yl)amino)pyrimidin-2-yl)amino)-5-methoxy-2-methylphenyl)piperidin-4-yl)piperazin-1-yl)ethyl)-2,6-difluorophenyl)piperidine-2,6-dione]: the DC50 in assay [1] (setting [3]) came out at 0.455 nM; in assay [2] (setting [5]), 5.75 nM. Besides, in assay [1] (setting [4]), the “Dmax (%) H1975 # 28 DTC” value is 91.78%.
Turning to `CCc1cc(Nc2ncc(Br)c(Nc3ccc4nc(C)sc4c3P(C)(C)=O)n2)c(OC)cc1N1CCC(N2CCN(CCc3cc(F)c(C4CCC(=O)NC4=O)c(F)c3)CC2)CC1` (stereo not drawn) [Example 666, 3-(4-(2-(4-(1-(4-((5-bromo-4-((7-(dimethylphosphoryl)-2-methylbenzo[d]thiazol-6-yl)amino)pyrimidin-2-yl)amino)-2-ethyl-5-methoxyphenyl)piperidin-4-yl)piperazin-1-yl)ethyl)-2,6-difluorophenyl)piperidine-2,6-dione], the DC50 came to 2.4 nM in assay [1] (setting [3]) and 11.1 nM in assay [2] (setting [5]). The “Dmax (%) H1975 # 28 DTC” value in assay [1] (setting [4]) worked out at 86.11%. Also, the Dmax in assay [2] (setting [6]) worked out at 93.2%.
For `CCOc1cc(N2CCC(N3CCN(CC4CCN(c5cc(F)cc6c5oc(=O)n6C5CCC(=O)NC5=O)CC4)CC3)CC2)c(CC)cc1Nc1ncc(Br)c(Nc2ccc3nc(CC)ccc3c2P(C)(C)=O)n1` (stereo not drawn) [Example 621, 3-(7-(4-((4-(1-(4-((5-bromo-4-((5-(dimethylphosphoryl)-2-ethylquinolin-6-yl)amino)pyrimidin-2-yl)amino)-5-ethoxy-2-ethylphenyl)piperidin-4-yl)piperazin-1-yl)methyl)piperidin-1-yl)-5-fluoro-2-oxobenzo[d]oxazol-3(2H)-yl)piperidine-2,6-dione], in that order: 1.61 nM, 15 nM, 77.44% and 93.9%.
As for `COc1cc(N2CCC(N3CCN(C(=O)[C@H]4CN(c5cc(F)c([C@H]6CCC(=O)NC6=O)c(F)c5)CC4(C)C)CC3)CC2)c(C)cc1Nc1ncc(Br)c(Nc2ccc3nc(C)c(F)cc3c2P(C)(C)=O)n1` [Example 729, (R)-3-(4-((R)-4-(4-(1-(4-((5-bromo-4-((5-(dimethylphosphoryl)-3-fluoro-2-methylquinolin-6-yl)amino)pyrimidin-2-yl)amino)-5-methoxy-2-methylphenyl)piperidin-4-yl)piperazine-1-carbonyl)-3,3-dimethylpyrrolidin-1-yl)-2,6-difluorophenyl)piperidine-2,6-dione], the 50% degradation concentration (DC50) in assay [1] (setting [3]) was found to be 1.13 nM; in assay [2] (setting [5]) it was 5.59 nM. The “Dmax (%) H1975 # 28 DTC” value in assay [1] (setting [4]) is given as 88.94%.
Regarding `CCOc1cc(N2CCC(N3CCN(CC4CN(c5cccc6c5oc(=O)n6C5CCC(=O)NC5=O)C4)CC3)CC2)c(CC)cc1Nc1ncc(Br)c(Nc2ccc3nc(CC)ncc3c2P(C)(C)=O)n1` (stereo not drawn) [Example 566, 3-(7-(3-((4-(1-(4-((5-bromo-4-((5-(dimethylphosphoryl)-2-ethylquinazolin-6-yl)amino)pyrimidin-2-yl)amino)-5-ethoxy-2-ethylphenyl)piperidin-4-yl)piperazin-1-yl)methyl)azetidin-1-yl)-2-oxobenzo[d]oxazol-3(2H)-yl)piperidine-2,6-dione], the “Dmax (%) H1975 # 28 DTC” value in assay [1] (setting [4]) was determined as 84.02%. Besides, the 50% degradation concentration (DC50) was 0.616 nM in assay [1] (setting [7]) and 5.25 nM in assay [2] (setting [5]).
Turning to `CCOc1cc(N2CCC(N3CCN(C(=O)[C@@H]4CCN(c5cc(F)cc6c5oc(=O)n6C5CCC(=O)NC5=O)C4)CC3)CC2)c(CC)cc1Nc1ncc(Br)c(Nc2ccc3nc(CC)ccc3c2P(C)(C)=O)n1` (stereo partly drawn) [Example 477, 3-(7-((R)-3-(4-(1-(4-((5-bromo-4-((5-(dimethylphosphoryl)-2-ethylquinolin-6-yl)amino)pyrimidin-2-yl)amino)-5-ethoxy-2-ethylphenyl)piperidin-4-yl)piperazine-1-carbonyl)pyrrolidin-1-yl)-5-fluoro-2-oxobenzo[d]oxazol-3(2H)-yl)piperidine-2,6-dione], in assay [1] (setting [4]), the “Dmax (%) H1975 # 28 DTC” value turned out to be 73.35%. The half-maximal degradation concentration (DC50) in assay [1] (setting [7]) was found to be 4.24 nM; in assay [2] (setting [8]), 7.16 nM. For the same molecule, the maximal degradation (Dmax) in assay [2] (setting [9]) stood at 82.7%.
Turning to `CCc1ccc2c(P(C)(C)=O)c(Nc3nc(Nc4cc(CC)c(N5CCC(N6CCN(CCc7cccc8c7n(C)c(=O)n8C7CCC(=O)NC7=O)CC6)CC5)cc4OC4CC4)ncc3Br)ccc2n1` (stereo not drawn) [Example 585, 3-(4-(2-(4-(1-(4-((5-bromo-4-((5-(dimethylphosphoryl)-2-ethylquinolin-6-yl)amino)pyrimidin-2-yl)amino)-5-cyclopropoxy-2-ethylphenyl)piperidin-4-yl)piperazin-1-yl)ethyl)-3-methyl-2-oxo-2,3-dihydro-1H-benzo[d]imidazol-1-yl)piperidine-2,6-dione], the results for the DC50 in assay [1] (setting [3]) and in assay [2] (setting [5]) were 0.695 nM and 2.5 nM, respectively. For the same molecule, the “Dmax (%) H1975 # 28 DTC” value in assay [1] (setting [4]) is 79.08%. The Dmax in assay [2] (setting [6]) turned out to be 96.2%.
For `CCc1ccc2c(P(C)(C)=O)c(Nc3nc(Nc4cc(CC)c(N5CCC(N6CCN(CC[C@H]7CCN(c8cc(F)c(C9CCC(=O)NC9=O)c(F)c8)C7)CC6)CC5)cc4OC)ncc3Br)ccc2n1` (stereo partly drawn) [Example 650, 3-(4-((S)-3-(2-(4-(1-(4-((5-bromo-4-((5-(dimethylphosphoryl)-2-ethylquinolin-6-yl)amino)pyrimidin-2-yl)amino)-2-ethyl-5-methoxyphenyl)piperidin-4-yl)piperazin-1-yl)ethyl)pyrrolidin-1-yl)-2,6-difluorophenyl)piperidine-2,6-dione], in that order: 3.39 nM, 16 nM, 59.93% and 75%.
Turning to `CCc1ccc2c(P(C)(C)=O)c(Nc3nc(Nc4cc(CC)c(N5CCC(N6CCN(CCc7cccc8c7n(C7CC7)c(=O)n8C7CCC(=O)NC7=O)CC6)CC5)cc4OC)ncc3Br)ccc2n1` (stereo not drawn) [Example 454, 3-(4-(2-(4-(1-(4-((5-bromo-4-((5-(dimethylphosphoryl)-2-ethylquinolin-6-yl)amino)pyrimidin-2-yl)amino)-2-ethyl-5-methoxyphenyl)piperidin-4-yl)piperazin-1-yl)ethyl)-3-cyclopropyl-2-oxo-2,3-dihydro-1H-benzo[d]imidazol-1-yl)piperidine-2,6-dione], the DC50 in assay [1] (setting [3]) was 0.735 nM; in assay [2] (setting [5]), 5.13 nM. For the same molecule, in assay [1] (setting [4]), the “Dmax (%) H1975 # 28 DTC” value was found to be 78.41%. In assay [2] (setting [6]), the Dmax turned out to be 92.3%.

Usually DC50 stands for the midpoint of the concentration-degradation curve. Broadly, the Dmax is the greatest extent of degradation seen.

Values taken from patent US20230265116A1, “DEGRADATION OF (EGFR) BY CONJUGATION OF EGFR INHIBITORS WITH E3 LIGASE LIGAND AND METHODS OF USE” (BEIGENE, LTD., priority 2020, published 2023).
